# In patent US5710245A, “Alpha-helix mimetics and methods relating thereto” (Molecumetics, Ltd., priority 1995, dated 1998):
# Assay: Circular dichroism (alpha-helicity) of peptide in water
# Type: physicochemical
# Conditions: ratio of mean residue ellipticity at 222 nm to 208 nm, 75 μM in water
# Text: Alpha-helicity of a peptide is typically determined by measuring its circular dichroism (CD), and CD data is normally presented as mean residue ellipticies [.THETA.]m. Alpha-helical peptides show two negative Cotton effects at 208 nm and 222 nm, and a positive Cotton effect at 193 nm, while the CD spectra of peptides with random coil secondary structure are dominated by the increasing negative Cotton effect at shorter wavelength. Alpha-helicity may be estimated from the value at 222 nm, and by comparing the negative Cotton effects at 222nm and 208nm. Increasing fraction of [.THETA.]m (222 nm) divided by [.THETA.]m(208 nm) correlates with increasing alpha-helicity. High values for [.THETA.]m(208 nm) compared to [.THETA.]m (222 nm) and a shifting minimum from 208 nm to shorter wavelengths indicate random coil conformation.
# An NPY analog having the structure Ac-RAAANLITRQRY--NH2 was synthesized according to standard solid phase peptide synthetic techniques. The NPY analog was then dissolved in water at a concentration of 75 μM, and its CD measured using a JASCO J500 CD spectrometer at a temperature of both 3° C. and 25° C. Structure VI was synthesized according to Example 3, and its CD was similarly measured at both 3° C. and 25° C. (at a concentration of 75 μM).
substance,measurement,setting,value
"Ac-RAAANLITRQRY-NH2 [NPY Analog, Ac-RAAANLITRQRY--NH2]",Circular Dichroism 222/208 3° C.,3° C.,0.38
same,Circular Dichroism 222/208 25° C.,25° C.,0.41
